{
  "source": "patent US20260137743A1",
  "about": "“METHODS OF RELIEVING PAIN” (Infinitum Health, LLC, priority 2023, published 2026)",
  "origin": "cited, not measured here",
  "settings": "isolated from Incarvillea sinensis",
  "data": [
    {"smiles": "COc1cc([C@H]2[C@H](C(=O)O[C@@H]3C[C@@H]4[C@@H](CN(C)C[C@@H]4C)[C@@H]3C)[C@H](c3ccc(O)c(OC)c3)[C@H]2C(=O)O[C@@H]2C[C@@H]3[C@@H](CN(C)C[C@@H]3C)[C@@H]2C)ccc1O", "note": "[Incarvillateine, incarvillateine]", "values": [
      {"measurement": "analgesic (pain relief) activity", "value": "significant analgesic (pain relief) activity"}
    ]}
  ]
}
